Here are results for one compound from ChEMBL document CHEMBL3611992, “Synthesis and Structure-Activity Relationships of Quaternary Coptisine Derivatives as Potential Anti-ulcerative Colitis Agents” (J Med Chem, 2015).

Series [1] deals with Mus musculus. The series is described as follows: Toxicity in DSS-induced acute C57Bl/6J mouse ulcerative colitis model assessed as change in body weight at 100 mg/kg, po qd (reference value: -15.3%). The class given is organism-based. The settings on record: in vivo.
Series [2] deals with Mus musculus. The series is described as follows: Toxicity in DSS-induced acute C57Bl/6J mouse ulcerative colitis model assessed as change in body weight at 200 mg/kg, po qd (reference value: -15.3%). The class given is organism-based. The settings on record: in vivo.
In series [3] the test system is Mus musculus. The series is described as follows: Anti-ulcerative colitis activity in DSS-induced acute C57Bl/6J mouse ulcerative colitis model assessed as restoration of polarity arrangement of IEC cells to its normal physiological state at 200 mg/kg, po qd measured on day 8. Type of series: functional, organism-based.
Series [4] deals with Mus musculus. The series is described as follows: Toxicity in DSS-induced acute C57Bl/6J mouse ulcerative colitis model assessed as change in body weight at 50 mg/kg, po qd (reference value: -15.3%). Type of series: organism-based. The settings on record: in vivo.
The subject of series [5] is Mus musculus. The series is described as follows: Anti-ulcerative colitis activity in DSS-induced acute C57Bl/6J mouse ulcerative colitis model assessed as improvement in colon contracture at 200 mg/kg, po qd measured on day 8 (reference value: 41.8%). The class given is functional.
The test system of series [6] is Mus musculus. The series is described as follows: Anti-ulcerative colitis activity in DSS-induced acute C57Bl/6J mouse ulcerative colitis model assessed as colon macroscopic damage index at 200 mg/kg, po qd measured on day 8 (reference value: 5.69 +/- 1.12). Type of series: functional.
For series [7], the system named is Mus musculus. The series is described as follows: Anti-ulcerative colitis activity in DSS-induced acute C57Bl/6J mouse ulcerative colitis model assessed as improvement in colon contracture at 50 mg/kg, po qd measured on day 8 (reference value: 41.8%). Type of series: functional.
The subject of series [8] is Mus musculus. The series is described as follows: Anti-ulcerative colitis activity in DSS-induced acute C57Bl/6J mouse ulcerative colitis model assessed as decrease in inflammatory lesions in colon tissue at 50 to 100 mg/kg, po qd measured on day 8. The class given is functional, organism-based.
Series [9] relates to Mus musculus. The series is described as follows: Anti-ulcerative colitis activity in DSS-induced acute C57Bl/6J mouse ulcerative colitis model assessed as improvement in colon contracture at 100 mg/kg, po qd measured on day 8 (reference value: 41.8%). Type of series: functional.
Series [10] deals with Mus musculus. The series is described as follows: Anti-ulcerative colitis activity in DSS-induced acute C57Bl/6J mouse ulcerative colitis model assessed as inhibition rate of disease activity index at 100 mg/kg, po qd measured on day 8 relative to control. Type of series: functional. The settings on record: 192 h.
For series [11], the species on record is Mus musculus. The series is described as follows: Potency index, ratio of compound activity to SASP activity for inhibition rate of disease activity index in DSS-induced acute C57Bl/6J mouse ulcerative colitis model. The class given is functional.
The test system of series [12] is Mus musculus. The series is described as follows: Anti-ulcerative colitis activity in po dosed DSS-induced acute C57Bl/6J mouse ulcerative colitis model assessed as decrease in colon macroscopic damage index administered as qd measured on day 8. Type of series: functional, organism-based.
Series [13] has as its system Mus musculus. The series is described as follows: Anti-ulcerative colitis activity in DSS-induced acute C57Bl/6J mouse ulcerative colitis model assessed as appearance of regularly arranged IEC cells at 200 mg/kg, po qd measured on day 8. Type of series: functional, organism-based.
The test system of series [14] is Mus musculus. The series is described as follows: Anti-ulcerative colitis activity in DSS-induced acute C57Bl/6J mouse ulcerative colitis model assessed as inhibition rate of disease activity index at 200 mg/kg, po qd measured on day 8 relative to control. Type of series: functional. The settings on record: 192 h.
The test system of series [15] is Mus musculus. The series is described as follows: Anti-ulcerative colitis activity in DSS-induced acute C57Bl/6J mouse ulcerative colitis model assessed as improvement in lesions of inflammatory bowel disease at 200 mg/kg, po qd measured on day 8. The class given is functional, organism-based.
Series [16] concerns Mus musculus. The series is described as follows: Anti-ulcerative colitis activity in DSS-induced acute C57Bl/6J mouse ulcerative colitis model assessed as colon macroscopic damage index at 100 mg/kg, po qd measured on day 8 (reference value: 5.69 +/- 1.12). The class given is functional.
The target in series [17] is T1, X-box-binding protein 1 (Homo sapiens) (UniProt P17861).
T1 sequence (whole entry): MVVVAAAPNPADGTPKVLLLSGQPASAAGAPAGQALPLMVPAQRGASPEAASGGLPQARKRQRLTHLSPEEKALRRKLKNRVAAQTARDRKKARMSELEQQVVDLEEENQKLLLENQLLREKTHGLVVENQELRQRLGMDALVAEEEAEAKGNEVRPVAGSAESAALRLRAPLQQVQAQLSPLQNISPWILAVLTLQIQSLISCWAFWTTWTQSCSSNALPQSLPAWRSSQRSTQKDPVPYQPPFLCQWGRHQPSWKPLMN
The series is described as follows: Transactivation of XBP1 (unknown origin) transfected in rat IEC-6 cells at 10 uM after 48 hrs by dual luciferase reporter gene assay relative to con 2. Type of series: cell-based.

In series [18] the target is T1, X-box-binding protein 1 (Homo sapiens). The series is described as follows: Transactivation of XBP1 (unknown origin) transfected in rat IEC-6 cells at 10 uM after 48 hrs by dual luciferase reporter gene assay. Type of series: cell-based.
The test system of series [19] is Mus musculus. The series is described as follows: Anti-ulcerative colitis activity in DSS-induced acute C57Bl/6J mouse ulcerative colitis model assessed as colon macroscopic damage index at 50 mg/kg, po qd measured on day 8 (reference value: 5.69 +/- 1.12). The class given is functional.
Series [20] deals with Mus musculus. The series is described as follows: Anti-ulcerative colitis activity in po dosed DSS-induced acute C57Bl/6J mouse ulcerative colitis model assessed as inhibition rate of disease activity index administered as qd measured on day 8. The class given is functional, organism-based.
Series [21] deals with Mus musculus. The series is described as follows: Anti-ulcerative colitis activity in DSS-induced acute C57Bl/6J mouse ulcerative colitis model assessed as inhibition rate of disease activity index at 50 mg/kg, po qd measured on day 8 relative to control. Type of series: functional. The following applies: 192 h.

Molecules are shown by their SMILES. Activity calls are given as the source filed them. The rule behind the calls is not given here. Where only a bound is given, the exact number is not on record here.

As to `C1=C2c3cc4c(cc3CCN2Cc2c1ccc1c2OCO1)OCO4`, the Activity was 0.4% in the series on Mus musculus [1]; 6.8% in the series with Mus musculus [2]; -7% in the series on Mus musculus [4]; 18.7% with Mus musculus [5]; 24.6% in the series on Mus musculus [7]; 20.8% in the series on Mus musculus [9]. Further, in the series with Mus musculus [12], the Activity entry was “Dose-dependent effect”. The outcome (with Mus musculus [3]; in the series on Mus musculus [13]; in the series with Mus musculus [15]; in series [18]) was Active. The figures for the Activity_index in the series on Mus musculus [6], in the series with Mus musculus [16] and with Mus musculus [19] were 2.16, 2.86 and 3.52, respectively. For the same compound, the result with Mus musculus [8] was inactive. For the same compound, the inhibition in vivo at 100 mg/kg in the series on Mus musculus [10] worked out at 55.9%. For the same compound, the Ratio entry in the series listed under Mus musculus [11] is reported as “<=2”. Also, the inhibition in vivo at 200 mg/kg with Mus musculus [14] was determined as 74%. The compound also had a fold change (FC) in [17] of 2.96. Further, the inhibition entry with Mus musculus [20] was “Dose-dependent effect”. Besides, the inhibition in vivo at 50 mg/kg in the series with Mus musculus [21] turned out to be 48%.

Usually inhibition in vivo stands for the change of the read-out against control, counted positive when it falls.
